Patent US12390441B2, “Immunomodulating o-het/aryl azalides” (Zoetis Services LLC, priority 2020, dated 2025)
Marks after values point to notes of the source that are not given here.

System: BRD pathogens, M. haemolytica and P. multocida
Test: In-vitro MIC model, BRD pathogen screening panel
Assay type: cell-based, Mannheimia haemolytica; Pasteurella multocida
Settings: at least one BRD strain

| Compound | MIC flag at the example number (Table E) | also measured |
| --- | --- | --- |
| CC[C@H]1OC(=O)[C@H](C)[C@@H](O[C@H]2C[C@@](C)(OC)[C@@H](O)[C@H](C)O2)[C@H](C)[C@@H](O[C@@H]2O[C@H](C)C[C@H](N(C)C)[C@H]2Oc2ccccc2OC)[C@](C)(O)C[C@@H](C)CN(C)[C@H](C)[C@@H](O)[C@]1(C)O [Example A-46] | – | MIC flag at the example number (Table A): A-46* (MIC ≤ 64 μg/mL for at least one BRD strain) |
| CC[C@H]1OC(=O)[C@H](C)[C@@H](O[C@H]2C[C@@](C)(OC)[C@@H](O)[C@H](C)O2)[C@H](C)[C@@H](O[C@@H]2O[C@H](C)C[C@H](N(C)C)[C@H]2Oc2cc(OC)cc(OC)c2)[C@](C)(O)C[C@@H](C)CN(C)[C@H](C)[C@@H](O)[C@]1(C)O [Example A-48] | – | MIC flag at the example number (Table A): A-48* (MIC ≤ 64 μg/mL for at least one BRD strain) |
| CC[C@H]1OC(=O)[C@H](C)[C@@H](O)[C@H](C)[C@@H](O[C@@H]2O[C@H](C)C[C@H](N(C)C(=O)N(C)c3ccccc3)[C@H]2Oc2ccc3ncsc3c2)[C@](C)(O)C[C@@H](C)CN(C)[C@H](C)[C@@H](O)[C@]1(C)O [Example C-11] | – | MIC flag at the example number (Table C): C-11* (MIC ≤ 64 μg/mL for at least one BRD strain) |
| CCCNC[C@]1(O)[C@H](C)O[C@@H](O[C@H]2[C@H](C)[C@@H](O[C@@H]3O[C@H](C)C[C@H](NC)[C@H]3Oc3ccccc3OC(F)(F)F)[C@](C)(O)C[C@@H](C)CN[C@H](C)[C@@H](O)[C@](C)(O)[C@@H](CC)OC(=O)[C@@H]2C)C[C@@]1(C)OC [Example E-5] | E-5* (MIC ≤ 64 μg/mL for at least one BRD strain) | – |
| CCCNC[C@]1(O)[C@H](C)O[C@@H](O[C@H]2[C@H](C)[C@@H](O[C@@H]3O[C@H](C)C[C@H](NC)[C@H]3Oc3ccccc3Cl)[C@](C)(O)C[C@@H](C)CN[C@H](C)[C@@H](O)[C@](C)(O)[C@@H](CC)OC(=O)[C@@H]2C)C[C@@]1(C)OC [Example E-14] | E-14* (MIC ≤ 64 μg/mL for at least one BRD strain) | – |
| CCCNC[C@]1(O)[C@H](C)O[C@@H](O[C@H]2[C@H](C)[C@@H](O[C@@H]3O[C@H](C)C[C@H](NC)[C@H]3Oc3cc(F)cc(F)c3)[C@](C)(O)C[C@@H](C)CN[C@H](C)[C@@H](O)[C@](C)(O)[C@@H](CC)OC(=O)[C@@H]2C)C[C@@]1(C)OC [Example E-16] | E-16* (MIC ≤ 64 μg/mL for at least one BRD strain) | – |
| CCCNC[C@]1(O)[C@H](C)O[C@@H](O[C@H]2[C@H](C)[C@@H](O[C@@H]3O[C@H](C)C[C@H](NC)[C@H]3Oc3cc(F)ccc3OC)[C@](C)(O)C[C@@H](C)CN[C@H](C)[C@@H](O)[C@](C)(O)[C@@H](CC)OC(=O)[C@@H]2C)C[C@@]1(C)OC [Example E-17] | E-17* (MIC ≤ 64 μg/mL for at least one BRD strain) | – |
| CCCNC[C@]1(O)[C@H](C)O[C@@H](O[C@H]2[C@H](C)[C@@H](O[C@@H]3O[C@H](C)C[C@H](NC)[C@H]3Oc3cc(OC)ccc3F)[C@](C)(O)C[C@@H](C)CN[C@H](C)[C@@H](O)[C@](C)(O)[C@@H](CC)OC(=O)[C@@H]2C)C[C@@]1(C)OC [Example E-18] | E-18* (MIC ≤ 64 μg/mL for at least one BRD strain) | – |
| CCCNC[C@]1(O)[C@H](C)O[C@@H](O[C@H]2[C@H](C)[C@@H](O[C@@H]3O[C@H](C)C[C@H](NC)[C@H]3Oc3cccc(Cl)c3)[C@](C)(O)C[C@@H](C)CN[C@H](C)[C@@H](O)[C@](C)(O)[C@@H](CC)OC(=O)[C@@H]2C)C[C@@]1(C)OC [Example E-21] | E-21* (MIC ≤ 64 μg/mL for at least one BRD strain) | – |
| CCCNC[C@]1(O)[C@H](C)O[C@@H](O[C@H]2[C@H](C)[C@@H](O[C@@H]3O[C@H](C)C[C@H](NC)[C@H]3Oc3ccc(F)c(C)c3)[C@](C)(O)C[C@@H](C)CN[C@H](C)[C@@H](O)[C@](C)(O)[C@@H](CC)OC(=O)[C@@H]2C)C[C@@]1(C)OC [Example E-22] | E-22* (MIC ≤ 64 μg/mL for at least one BRD strain) | – |
| CCCNC[C@]1(O)[C@H](C)O[C@@H](O[C@H]2[C@H](C)[C@@H](O[C@@H]3O[C@H](C)C[C@H](NC)[C@H]3Oc3ccc(F)cc3C)[C@](C)(O)C[C@@H](C)CN[C@H](C)[C@@H](O)[C@](C)(O)[C@@H](CC)OC(=O)[C@@H]2C)C[C@@]1(C)OC [Example E-23] | E-23* (MIC ≤ 64 μg/mL for at least one BRD strain) | – |
| CCCNC[C@]1(O)[C@H](C)O[C@@H](O[C@H]2[C@H](C)[C@@H](O[C@@H]3O[C@H](C)C[C@H](N(C)C)[C@H]3Oc3ccc(OC)c(OC(C)C)c3)[C@](C)(O)C[C@@H](C)CN[C@H](C)[C@@H](O)[C@](C)(O)[C@@H](CC)OC(=O)[C@@H]2C)C[C@@]1(C)OC [Example E-29] | E-29* (MIC ≤ 64 μg/mL for at least one BRD strain) | – |
| CCCNC[C@]1(O)[C@H](C)O[C@@H](O[C@H]2[C@H](C)[C@@H](O[C@@H]3O[C@H](C)C[C@H](NC)[C@H]3Oc3ccncc3)[C@](C)(O)C[C@@H](C)CN[C@H](C)[C@@H](O)[C@](C)(O)[C@@H](CC)OC(=O)[C@@H]2C)C[C@@]1(C)OC [Example E-32] | E-32* (MIC ≤ 64 μg/mL for at least one BRD strain) | – |
| CCCNC[C@]1(O)[C@H](C)O[C@@H](O[C@H]2[C@H](C)[C@@H](O[C@@H]3O[C@H](C)C[C@H](NC)[C@H]3Oc3ncccn3)[C@](C)(O)C[C@@H](C)CN[C@H](C)[C@@H](O)[C@](C)(O)[C@@H](CC)OC(=O)[C@@H]2C)C[C@@]1(C)OC [Example E-33] | E-33* (MIC ≤ 64 μg/mL for at least one BRD strain) | – |
| CCCNC[C@]1(O)[C@H](C)O[C@@H](O[C@H]2[C@H](C)[C@@H](O[C@@H]3O[C@H](C)C[C@H](NC)[C@H]3Oc3ccc([N+](=O)[O-])cc3)[C@](C)(O)C[C@@H](C)CN[C@H](C)[C@@H](O)[C@](C)(O)[C@@H](CC)OC(=O)[C@@H]2C)C[C@@]1(C)OC [Example E-35] | E-35* (MIC ≤ 64 μg/mL for at least one BRD strain) | – |
| CCCNC[C@]1(O)[C@H](C)O[C@@H](O[C@H]2[C@H](C)[C@@H](O[C@@H]3O[C@H](C)C[C@H](NC)[C@H]3Oc3cccnc3C)[C@](C)(O)C[C@@H](C)CN[C@H](C)[C@@H](O)[C@](C)(O)[C@@H](CC)OC(=O)[C@@H]2C)C[C@@]1(C)OC [Example E-44] | E-44* (MIC ≤ 64 μg/mL for at least one BRD strain) | – |
| CCCNC[C@]1(O)[C@H](C)O[C@@H](O[C@H]2[C@H](C)[C@@H](O[C@@H]3O[C@H](C)C[C@H](NC)[C@H]3Oc3cc(C)ccc3F)[C@](C)(O)C[C@@H](C)CN[C@H](C)[C@@H](O)[C@](C)(O)[C@@H](CC)OC(=O)[C@@H]2C)C[C@@]1(C)OC [Example E-53] | E-53* (MIC ≤ 64 μg/mL for at least one BRD strain) | – |
| CCCNC[C@]1(O)[C@H](C)O[C@@H](O[C@H]2[C@H](C)[C@@H](O[C@@H]3O[C@H](C)C[C@H](NC)[C@H]3Oc3cccc(OC(F)(F)F)c3)[C@](C)(O)C[C@@H](C)CN[C@H](C)[C@@H](O)[C@](C)(O)[C@@H](CC)OC(=O)[C@@H]2C)C[C@@]1(C)OC [Example E-54] | E-54* (MIC ≤ 64 μg/mL for at least one BRD strain) | – |
| CCCNC[C@]1(O)[C@H](C)O[C@@H](O[C@H]2[C@H](C)[C@@H](O[C@@H]3O[C@H](C)C[C@H](NC)[C@H]3Oc3ccc(F)c(F)c3F)[C@](C)(O)C[C@@H](C)CN[C@H](C)[C@@H](O)[C@](C)(O)[C@@H](CC)OC(=O)[C@@H]2C)C[C@@]1(C)OC [Example E-55] | E-55* (MIC ≤ 64 μg/mL for at least one BRD strain) | – |
